The numbers were not newly measured in patent publication US11278511B2, “Sports health performance composition” (REV Pharmaceuticals, Inc., priority 2016, dated 2022), which cites them from elsewhere.

SMILES strings stand for the structures. Like-named read-outs stand apart in the source and are kept apart here.

For series [1], the system named is urinary cGMP and nitrate excretion.
[2] abbreviates: IV infusion or oral, doses 6 to 30 gm, humans.

In general, Cmax refers to the highest concentration seen after dosing. In the case of `N=C(N)NCCC[C@H](N)C(=O)O` [L-arginine], the Cmax was 822 µM (6 gm IV), 310 µM (6 gm oral) and 6220 µM (30 gm IV). Moreover, the Half life by setting is: (IV) 1 h; (PO) 1.5 h. In the series with humans (6 gm doses), the changes in hemodynamics result was “No significant changes”. Besides, the blood pressure result in the series with humans (30 gm IV) is recorded as “significantly decreased”. In addition, the total peripheral resistance entry in the series with humans (30 gm IV) is recorded as “significantly decreased”. Besides, the endothelium-dependent vasodilation entry in the series on humans (setting [2]) is “improved endothelium-dependent vasodilation”. The muscle blood flow entry in the series on humans (setting [2]) is reported as “improved muscle blood flow”. Besides, the peripheral vasodilation result with humans (setting [2]) is given as “induced peripheral vasodilation”. In addition, the “urinary cGMP excretion” value in series [1] (6 gm IV) and in series [1] (30 gm IV) was “significant increases” in each case. The urinary nitrate excretion entry in series [1] (6 gm IV) and in series [1] (30 gm IV) was “significant increases” in each case.
